These results are taken from patent US20100286023A1, “Compositions and Methods for Increasing Muscle Mass, Strength, and Functional Performance in the Elderly” (priority 2008, published 2010).

One test relates to anesthetized rabbits. Put plainly: Amino acid infusion with arginine raised to about 50% of the mixture (Example 6). It counts as in vivo, rabbit. The text has this:
Muscle protein synthesis was stimulated in anesthetized rabbits when arginine was increased to about 50% of the total mixture of amino acids infused. […] The mechanism by which arginine activates the initiation of protein synthesis is the same as leucine. Further, arginine is relatively deficient in the elderly. Thus, addition of arginine may work in concert with leucine to activate protein synthesis in elderly.

For a further test, the system named is muscle protein synthesis. The note with it: tightly controlled laboratory setting, glucose infused to maintain euglycemia; cited from earlier work.

As to `N=C(N)NCCC[C@H](N)C(=O)O` [arginine], the Muscle protein synthesis entry in the test with anesthetized rabbits (arginine about 50% of the total mixture of amino acids infused) is given as “stimulated”. Further, in the test with anesthetized rabbits (arginine added to the amino acid solution), the Muscle protein breakdown entry is “unchanged”. Also, in the test with anesthetized rabbits (post-absorptive rabbits), the Net muscle catabolism entry is on record as “virtually completely reversed”.

For “insulin: hormone, pharmacological treatment compared with EAAs”, in the test with muscle protein synthesis, the “Effect on muscle protein synthesis compared with EAAs” value is reported as “in the same range of effectiveness as EAAs”.
